# Source: ChEMBL document CHEMBL1159305, “Vidalenolone, a novel phenolic metabolite from the tropical red alga Vidalia sp” (J Nat Prod, 2002)
# Calls of active or inactive are those of the source. The rule behind the calls is not given here.
# Experiments:
# [1] = target: Tyrosine-protein kinase ABL1 (Homo sapiens) (UniProt P00519); test: Inhibition of GST-tagged human recombinant full length Abl SH2 domain expressed in Escherichia coli […] binding to biotinylated phosphotyrosine-containing peptide by ELISA
# [2] = target: Tyrosine-protein kinase Fyn (Homo sapiens) (UniProt P06241); test: Inhibition of GST-tagged human recombinant full length Fyn SH2 domain expressed in Escherichia coli […] binding to biotinylated phosphotyrosine-containing peptide by ELISA
# [3] = target: Adapter molecule crk (Homo sapiens) (UniProt P46108); test: Inhibition of GST-tagged human recombinant full length Crk SH2 domain expressed in Escherichia coli […] binding to biotinylated phosphotyrosine-containing peptide by ELISA
# [4] = target: Growth factor receptor-bound protein 2 (Homo sapiens) (UniProt P62993); test: Inhibition of GST-tagged human recombinant full length Grb2 SH2 domain expressed in Escherichia coli […] binding to biotinylated phosphotyrosine-containing peptide by ELISA
# Tyrosine-protein kinase Fyn (Homo sapiens), sequence (P06241 2-537 limits assumed): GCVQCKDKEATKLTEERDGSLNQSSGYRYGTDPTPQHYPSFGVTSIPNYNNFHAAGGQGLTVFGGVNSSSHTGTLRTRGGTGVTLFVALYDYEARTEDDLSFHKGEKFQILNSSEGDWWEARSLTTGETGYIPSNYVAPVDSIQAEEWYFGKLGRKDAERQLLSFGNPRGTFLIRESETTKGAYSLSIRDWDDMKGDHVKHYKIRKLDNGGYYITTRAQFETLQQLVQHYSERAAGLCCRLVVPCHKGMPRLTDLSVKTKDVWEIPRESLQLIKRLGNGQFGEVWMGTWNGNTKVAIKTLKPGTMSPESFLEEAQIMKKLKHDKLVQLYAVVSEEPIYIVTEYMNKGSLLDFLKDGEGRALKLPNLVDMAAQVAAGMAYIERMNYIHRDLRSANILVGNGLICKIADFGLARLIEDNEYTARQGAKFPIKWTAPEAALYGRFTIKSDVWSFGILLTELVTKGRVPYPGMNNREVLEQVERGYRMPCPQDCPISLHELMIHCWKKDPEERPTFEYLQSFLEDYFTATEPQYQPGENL
# Adapter molecule crk (Homo sapiens), sequence (P46108 whole entry, the tested form may be a part): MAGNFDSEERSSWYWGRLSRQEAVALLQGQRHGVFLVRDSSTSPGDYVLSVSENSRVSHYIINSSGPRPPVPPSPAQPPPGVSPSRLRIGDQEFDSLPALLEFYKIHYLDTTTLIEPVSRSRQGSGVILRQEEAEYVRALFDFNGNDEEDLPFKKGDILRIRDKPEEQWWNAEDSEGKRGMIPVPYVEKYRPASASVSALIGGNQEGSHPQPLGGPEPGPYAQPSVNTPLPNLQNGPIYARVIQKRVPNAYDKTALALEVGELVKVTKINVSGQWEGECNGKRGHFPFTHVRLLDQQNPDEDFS
# Tyrosine-protein kinase ABL1 (Homo sapiens), sequence (P00519 whole entry, the tested form may be a part): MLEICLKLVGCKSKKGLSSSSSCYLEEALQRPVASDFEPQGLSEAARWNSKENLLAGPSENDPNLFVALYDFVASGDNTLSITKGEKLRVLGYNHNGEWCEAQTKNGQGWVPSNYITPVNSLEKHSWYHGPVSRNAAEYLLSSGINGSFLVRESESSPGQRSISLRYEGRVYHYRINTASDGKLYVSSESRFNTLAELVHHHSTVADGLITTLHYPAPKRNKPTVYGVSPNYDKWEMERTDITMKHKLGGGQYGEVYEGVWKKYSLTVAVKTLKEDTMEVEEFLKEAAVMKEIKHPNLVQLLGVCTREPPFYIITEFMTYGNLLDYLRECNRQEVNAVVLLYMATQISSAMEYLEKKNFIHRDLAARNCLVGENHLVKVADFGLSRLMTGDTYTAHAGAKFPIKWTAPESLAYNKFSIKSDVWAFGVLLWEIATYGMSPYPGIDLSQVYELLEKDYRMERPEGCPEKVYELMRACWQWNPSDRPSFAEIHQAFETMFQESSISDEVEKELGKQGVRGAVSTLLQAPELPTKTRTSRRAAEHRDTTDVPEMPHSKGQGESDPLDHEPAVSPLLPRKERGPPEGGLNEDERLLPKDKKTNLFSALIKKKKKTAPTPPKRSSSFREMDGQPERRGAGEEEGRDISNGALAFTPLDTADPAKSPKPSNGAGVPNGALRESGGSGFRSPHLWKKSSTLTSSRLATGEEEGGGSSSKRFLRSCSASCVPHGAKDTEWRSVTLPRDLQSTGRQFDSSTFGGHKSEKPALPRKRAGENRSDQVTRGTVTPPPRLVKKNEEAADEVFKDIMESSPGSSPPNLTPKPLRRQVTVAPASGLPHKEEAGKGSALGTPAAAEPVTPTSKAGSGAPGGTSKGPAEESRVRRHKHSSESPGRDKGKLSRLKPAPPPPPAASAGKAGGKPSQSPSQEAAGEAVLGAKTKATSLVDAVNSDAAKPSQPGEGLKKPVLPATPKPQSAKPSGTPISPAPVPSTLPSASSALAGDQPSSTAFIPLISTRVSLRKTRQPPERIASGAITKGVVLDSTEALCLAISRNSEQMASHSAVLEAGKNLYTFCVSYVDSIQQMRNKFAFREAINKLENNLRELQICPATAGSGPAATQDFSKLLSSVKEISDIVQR
Activity [1],Activity [2],Activity [3],Activity [4],SMILES
inactive,inactive,inactive,inactive,OCc1ccc(O)cc1
inactive,inactive,inactive,inactive,CCOCc1cc(O)c(O)c(Br)c1Br
inactive,inactive,inactive,inactive,COC1(Cc2ccc(O)cc2)CC=C(O)C1=O (configuration not stated)
